# Test results reported in patent publication US20060019932A1, “Treatment of rheumatoid arthritis by inhibition of pde4” (priority 2002, published 2006).
# Like-named read-outs stand apart in the source and are kept apart here.
# How the values were obtained:
# [1] = tested on: collagen-induced arthritis in DBA mice; assay: Collagen-induced arthritis in DBA mice, cumulative score; type: in vivo; settings: FIG. 1, score against days dosed, comparable to indomethacin
# Description: FIG. 1 is a graphical plot of the cumulative score in collagen-induced arthritis in DBA mice plotted against days dosed for vehicle, Roflumilast, Indomethacin, and Example 1.
# [2] = target: T1, human recombinant phosphodiesterase IVa (met-248) (Homo sapiens, UniProt P27815); assay: SPA based PDE activity assay; type: biochemical
# T1 construct: human recombinant phosphodiesterase IVa (met-248); GST; made in house; host or cells: baculovirus/Sf-9
# T1 sequence (P27815 248-886): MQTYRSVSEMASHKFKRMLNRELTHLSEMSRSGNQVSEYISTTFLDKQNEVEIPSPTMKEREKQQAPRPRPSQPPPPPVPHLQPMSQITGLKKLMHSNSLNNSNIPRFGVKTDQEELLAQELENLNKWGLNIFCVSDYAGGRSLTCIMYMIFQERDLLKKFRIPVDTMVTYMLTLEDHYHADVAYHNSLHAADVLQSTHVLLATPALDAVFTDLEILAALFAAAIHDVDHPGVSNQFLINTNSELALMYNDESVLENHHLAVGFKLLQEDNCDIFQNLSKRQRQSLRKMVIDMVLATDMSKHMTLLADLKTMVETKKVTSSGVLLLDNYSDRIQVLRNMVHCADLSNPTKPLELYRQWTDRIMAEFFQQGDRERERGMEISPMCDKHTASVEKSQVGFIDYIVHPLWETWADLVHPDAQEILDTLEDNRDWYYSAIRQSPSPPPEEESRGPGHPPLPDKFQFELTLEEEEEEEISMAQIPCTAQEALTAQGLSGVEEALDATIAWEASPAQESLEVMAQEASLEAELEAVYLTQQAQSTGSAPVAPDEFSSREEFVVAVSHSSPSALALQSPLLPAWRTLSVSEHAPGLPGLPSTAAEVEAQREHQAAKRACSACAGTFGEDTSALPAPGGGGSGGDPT
# Method: Compounds which inhibit the hydrolysis of cAMP to AMP by the type-IV cAMP-specific phosphodiesterases were screened in a 96-well plate format as follows:
# In a 96 well-plate at 30° C. the test compound was added (dissolved in 2 μL DMSO), 188 μL of substrate buffer containing [2,8-^3H] adenosine 3′,5′-cyclic phosphate (cAMP, 100 nM to 50 μM), 10 mM MgCl2, 1 mM EDTA, 50 mM Tris, pH 7.5. The reaction was initiated by the addition of human recombinant PDE4 (the amount was controlled so that ˜10% product was formed in 10 min.). The reaction was stopped after 10 min. by the addition of 1 mg of PDE-SPA beads (Amersham Pharmacia Biotech, Inc., Piscataway, N.J.). The product AMP generated was quantified on a Wallac Microbeta® 96-well plate counter (EG&G Wallac Co., Gaithersburg, Md.). The signal in the absence of enzyme was defined as the background. 100% activity was defined as the signal detected in the presence of enzyme and DMSO with the background subtracted. Percentage of inhibition was calculated accordingly. IC50 value was approximated with a non-linear regression fit using the standard 4-parameter/multiple binding sites equation from a ten point titration.
# IL-2 = assay: Inhibition of LPS or Con A stimulated human whole blood: IL-2; type: cell-based; settings: read-out: Inhibition of LPS or Con A stimulate human whole blood, IL-2
# Description: (§1) Rheumatoid arthritis (RA) is a systemic autoimmune disease resulting in progressive joint destruction and associated pain. Three major contributors to its pathology are joint inflammation, abnormal cellular and humoral responses, and synovial hyperplasia. T-lymphocytes (T-cells) and monocytes are the major cell types recovered from the synovial tissue of RA patients and experimental evidence confirms that pro-inflammatory cytokines produced by these cells are the major contributors to joint pathogenesis. The inventors have analyzed human whole blood for the production of various cytokines including Th1 and Th2 cytokines following stimulation with lipoplysaccharide (LPS) and Concanavalin A (ConA) in the presence or absence of PDE4 inhibitors. […] TNF-α sequestrants alone have shown clinical efficacy in RA. Thus, if sufficient levels of inhibition are achieved, PDE4 inhibitor-mediated TNF-α suppression would have efficacy in RA.
# (§2) Inhibition of various Th1 and monocyte derived cytokines which may play a role in human rheumatoid arthritis.
# IFNγ = assay: Inhibition of LPS or Con A stimulated human whole blood: IFNγ; type: cell-based; settings: read-out: Inhibition of LPS or Con A stimulate human whole blood, IFNγ
# Description: as §1, §2
# TNF-α = assay: Inhibition of LPS or Con A stimulated human whole blood: TNF-α; type: cell-based; settings: read-out: Inhibition of LPS or Con A stimulate human whole blood, TNF-α
# Description: as §1
# Whole blood provides a protein and cell-rich milieu appropriate for the study of biochemical efficacy of anti-inflammatory compounds such as PDE4-selective inhibitors. […] Upon stimulation with LPS, activated monocytes express and secrete TNF-α up to 8 hours and plasma levels remain stable for 24 hours. […]
# IL-12 = assay: Inhibition of LPS or Con A stimulated human whole blood: IL-12; type: cell-based; settings: read-out: Inhibition of LPS or Con A stimulate human whole blood, IL-12
# Description: as §1, §2
# GM-CSF = assay: Inhibition of LPS or Con A stimulated human whole blood: GM-CSF; type: cell-based; settings: read-out: Inhibition of LPS or Con A stimulate human whole blood, GM-CSF
# Description: as §1, §2
SMILES,cumulative score in collagen-induced arthritis [1],"IC50 ([2]; 100 nM cAMP, purified GST fusion protein of human recombinant PDE IVa (met-248), baculovirus/Sf-9, read-out: IC50) [nM]",IC50 [2] [nM],IC50 (IL-2) [nM],IC50 (IFNγ) [nM],IC50 (TNF-α) [nM],IC50 (IL-12) [nM],IC50 (GM-CSF) [nM]
"O=C(Nc1c(Cl)cncc1Cl)c1ccc(OC(F)F)c(OCC2CC2)c1 [Roflumilast, N-(3,5-dichloropyrid-4-yl)-3-cyclopropylmethoxy-4-difluoromethoxybenzamide, reference compound]",low cumulative scores,–,–,–,–,–,–,–
CC(C)NC(=O)/C(=C/c1cccc(-c2cc(C(C)(C)C#N)cc3cccnc23)c1)c1ccc(S(C)(=O)=O)cc1 [Example 1],low cumulative scores,0.76,–,–,–,–,–,–
Cc1c[n+]([O-])ccc1CC(c1ccc(C(O)(C(F)(F)F)C(F)(F)F)cc1)c1ccc(OC(F)F)c(OC(F)F)c1 (stereo not drawn) [Example 2],–,–,1.31,300,50,50,130,70
